This is an account of results in patent US10548877B2, “Aromatic ring compound” (TAKEDA PHARMACEUTICAL COMPANY LIMITED, priority 2016, dated 2020).

The assay concerns the target T1, human M1 receptor (hCHRM1) (Homo sapiens, UniProt P11229).
T1 construct: expressed in transfected cells
T1 sequence (P11229 1-460): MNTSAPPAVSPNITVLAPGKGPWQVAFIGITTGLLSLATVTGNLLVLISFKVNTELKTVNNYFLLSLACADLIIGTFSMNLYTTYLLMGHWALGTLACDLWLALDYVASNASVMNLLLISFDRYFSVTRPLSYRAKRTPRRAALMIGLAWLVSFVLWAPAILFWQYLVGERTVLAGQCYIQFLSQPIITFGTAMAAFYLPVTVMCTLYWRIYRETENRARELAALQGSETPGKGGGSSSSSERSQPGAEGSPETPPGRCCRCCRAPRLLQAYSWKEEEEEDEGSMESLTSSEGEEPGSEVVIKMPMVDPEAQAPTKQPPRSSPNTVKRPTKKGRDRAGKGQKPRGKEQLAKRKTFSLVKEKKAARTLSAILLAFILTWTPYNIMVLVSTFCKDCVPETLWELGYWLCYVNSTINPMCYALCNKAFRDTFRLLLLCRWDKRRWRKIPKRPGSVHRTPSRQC
Nature of the assay: Measurement of M1 receptor positive allosteric modulator (M1PAM) activity (calcium fluorescence, Fluo-4). The class given is cell-based. The following applies: for pEC50: inflection point of concentration-dependent curve, CHO-K1 cells stably expressing hCHRM1, in presence of acetylcholine at EC20 (final 0.8-1.0 nM), read-out: IP value; for activity (%) at 10 μM: test compound 10 μM with acetylcholine at EC20, 100% = 1 μM acetylcholine, 0% = DMSO, CHO-K1 cells expressing hCHRM1. How it is done:
Measurement of M1 Receptor Positive Allosteric Modulator (M1PAM) Activity
The activity of a test compound in the presence of acetylcholine at EC20 concentration (final concentration 0.8-1.0 nM), which affords an action corresponding to about 20% of the maximum activity, was measured as PAM activity. The method is as follows. CHO-K1 cells stably expressing a human M1 receptor (hCHRM1) were plated on a 384-well black clear bottom plate (BD Falcon) at 5,000 cells/well, and cultured in an incubator at 37° C., 5% CO2 for 1 day. The medium in the cell plate was removed, and assay buffer A containing a calcium indicator (Recording medium (DOJINDO LABORATORIES), 0.1% BSA (Wako Pure Chemical Industries, Ltd.), 2.5 μg/mL Fluo-4 AM (DOJINDO LABORATORIES), 0.08% Pluronic F127 (DOJINDO LABORATORIES) and 1.25 mM probenecid (DOJINDO LABORATORIES) were added at 30 μL/well. The cells were left standing in the incubator at 37° C., 5% CO2 for 30 min, and further left standing at room temperature for 30 min. A test compound prepared by diluting with assay buffer B (HBSS (Invitrogen), 20 mM HEPES (Invitrogen), 0.1% BSA) containing 3.2-4.0 nM acetylcholine was added at 10 μL/well, and the fluorescence was measured by FDSS/pcell (Hamamatsu Photonics K.K.) for 1 min every for 1 second. With the definition that the amount of change in the fluorescence on addition of acetylcholine (final concentration 1 μM) is 100% and that on addition of DMSO instead of a test compound is 0%, the activity (%) of the test compound was calculated, and the inflection point in the concentration-dependent curve of the test compound was calculated as IP values.

pEC50: −log10 of the molar value.

Regarding `COc1c(C(=O)N[C@H]2CCC[C@@H]2O)cc(Cc2ccc(-n3cccn3)cc2)c(C)c1C` (relative stereo) [Example 2, N-(trans-2-hydroxycyclopentyl)-2-methoxy-3,4-dimethyl-5-(4-(1H-pyrazol-1-yl)benzyl)benzamide], the pEC50 was 7.02 and the “activity (%) at 10 μM” value was 96%.
Regarding `COc1c(C(=O)N[C@H]2CCC[C@@H]2O)cc(Cc2ccc(-c3ccn(C)n3)nc2)c(C)c1C` [Example 22, N-((1S,2S)-2-hydroxycyclopentyl)-2-methoxy-3,4-dimethyl-5-((6-(1-methyl-1H-pyrazol-3-yl)pyridin-3-yl)methyl)benzamide], the pEC50 was 7.26 and the “activity (%) at 10 μM” value is given as 95%.
In the same order, the values of `Cc1c(Cc2ccc(-n3cccn3)cc2)cc(C(=O)N[C@H]2COCC[C@@H]2O)c(F)c1F` [Example 25, 1,5-anhydro-2,4-dideoxy-2-((2,3-difluoro-4-methyl-5-(4-(1H-pyrazol-1-yl)benzyl)benzoyl)amino)-L-threo-pentitol] are 7.48 and 97%.
On the same counts, the results for `COc1c(C(=O)N[C@H]2CCCC[C@@H]2O)cc(Cc2ccc(-c3cn(C)nn3)cc2)c(C)c1C` (relative stereo) [Example 5, N-(trans-2-hydroxycyclohexyl)-2-methoxy-3,4-dimethyl-5-(4-(1-methyl-1H-1,2,3-triazol-4-yl)benzyl)benzamide] are 7.92 and 105%.
